Source: US20130095059A1, “INHALED NO DONOR KMUPS DERIVATIVE PREVENTING ALLERGIC PULMONARY VASCULAR AND BRONCHIAL INFLAMMATION VIA SUPPRESSED CYTOKINES, INOS AND INFLAMMATORY CELL COUNTS IN ASTHMA MODEL” (priority 2007, published 2013)

Tested on: ROCK
Assay: 5-HT-induced ROCK expression in PASMCs
Assay type: cell-based, Wistar rats
Details: 10 μM
Description: PASMCs were stimulated with 5-HT or not, as indicated. Cells were treated with KMUP-1 for 24 h before 5-HT stimulation. Whole lysates were collected and resolved by SDS-PAGE as previously described. Primary antibodies were anti-β-actin at: 1:10,000 dilution and anti-RhoA, anti-ROCK, antiphospho-ERK1/2, anti-phospho-AKT, anti-ERK1/2, anti-AKT, anti-5HTT, anti-5-HT2B and anti-eNOS at 1:1000. All blots were incubated with antibodies at 4° C. overnight. After being washed, the appropriate secondary antibodies were added at a dilution of 1:1000 for 1 h at room temperature. After extensive washing, blots were developed with a Super Signal enhanced chemiluminescence kit (Biorad, CA, USA) and visualized on Kodak AR film.
The expression of RhoA/ROCK and phosphorylation of ERK1/2 and AKT kinase in PASMCs were assessed by incubating the PASMCs with 5-HT (10 μM) for 15 min (peak time for RhoA/ROCK, ERK1/2 and AKT phosphorylation) and 5-HTT for 10 min (peak time for 5-HTT) after KMUP-1 (1-100 μM) was added to the culture of PASMCs for 24 h.

For C[C@@H](N)[C@H]1CC[C@H](C(=O)Nc2ccncc2)CC1 [Y27632, reference compound], the ROCK expression was “inhibited”.
